Assay results taken from PMC11456921 (RSC Advances, 2024).
Converted amounts (≈) assume the structure as drawn. Blank lines part the entries; values can stand above or below the compound they belong to.

Legend:
CDK2/cyclin A = CDK2/cyclin A (Homo sapiens, UniProt P24941); format: biochemical
GSK3β = GSK3β (Homo sapiens, UniProt P49841); format: biochemical
[1] = tested on: HEp-2 human laryngeal carcinoma cell line; assay: In vitro anti-proliferative assay, SRB method, HEp-2; format: cell-based; conditions: for IC50: Homo sapiens, HEp-2, 48 h, read-out: IC50 against HEp-2; for HEp-2 (% inhibition): single concentration 100 μg mL^−1, 48 h, SRB, mean ± SD
[2] = tested on: MCF-7 human breast carcinoma cell line; assay: In vitro anti-proliferative assay, sulforhodamine-B; format: cell-based; conditions: single concentration 100 μg mL^−1, 48 h, SRB; mean ± SD
HEp-2 cells [3] = assay: Total nitrate/nitrite; format: cell-based, human; conditions: HEp-2, treated with IC50 for 48 h
HEp-2 cells [4] = assay: Reduced glutathione; format: cell-based, human; conditions: HEp-2, treated with IC50 for 48 h
[5] = tested on: Vero normal African green monkey kidney cell line; assay: In vitro anti-proliferative assay, SRB method, normal Vero cells; format: cell-based; conditions: single concentration 100 μg mL^−1, 48 h, mean ± SD
HepG2 cells [6] = assay: Apoptosis detection, annexin V-FITC/PI flow cytometry; format: cell-based, human; conditions: HepG2, 9.5 μg mL^−1 (IC50), 24 h; DMSO control 1.18%
[7] = tested on: HepG2 human hepatocellular carcinoma cell line; assay: In vitro anti-proliferative assay, SRB method, HepG2; format: cell-based
HepG2 cells [8] = assay: Cell cycle analysis by flow cytometry; format: cell-based, human; conditions: HepG2, 9.5 μg mL^−1 (IC50), 24 h
HepG2 cells [9] = assay: Reduced glutathione; format: cell-based, human; conditions: HepG2, treated with IC50 for 48 h
HepG2 cells [10] = assay: Total nitrate/nitrite; format: cell-based, human; conditions: HepG2, treated with IC50 for 48 h

Sequence of GSK3β (P49841 whole entry): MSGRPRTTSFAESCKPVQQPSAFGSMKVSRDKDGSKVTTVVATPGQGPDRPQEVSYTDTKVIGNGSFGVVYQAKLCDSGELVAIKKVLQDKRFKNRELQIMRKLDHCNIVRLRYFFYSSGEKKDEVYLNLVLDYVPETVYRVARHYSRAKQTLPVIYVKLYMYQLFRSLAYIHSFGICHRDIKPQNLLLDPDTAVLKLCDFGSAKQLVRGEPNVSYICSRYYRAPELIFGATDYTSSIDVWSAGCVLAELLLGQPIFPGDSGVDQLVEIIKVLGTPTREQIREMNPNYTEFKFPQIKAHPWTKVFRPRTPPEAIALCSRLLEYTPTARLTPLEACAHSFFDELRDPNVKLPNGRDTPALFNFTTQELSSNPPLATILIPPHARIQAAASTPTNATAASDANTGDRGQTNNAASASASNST

- IC50 (CDK2/cyclin A): 16700 nM
- Roscovitine inhibitory activity against CDK2/cyclin A relative to the compound (CDK2/cyclin A; from IC50 values of Table 2): more than 3.5 times
- IC50 (GSK3β): 2250 nM
- IC50 [1]: 7.5 µg/mL (≈ 38.6 µM)
SMILES: C/C(=N\NC(N)=S)c1ccccn1 [1a, (E)-2-(1-(pyridin-2-yl)ethylidene)hydrazine-1-carbothioamide]
- GSK3β inhibitory activity compared with CHIR-99021 (GSK3β; from IC50 values of Table 2): the reference drug showing nearly six times its inhibitory activity
- HEp-2 (% inhibition) [1]: 79.91 ± 0.7%

SMILES: CCn1c(C)c(C(C)=O)s/c1=N/N=C(\C)c1ccccn1 [3b, 1-((E)-3-Ethyl-4-methyl-2-(((E)-1-(pyridin-2-yl)ethylidene)hydrazono)-2,3-dihydrothiazol-5-yl)ethan-1-one]
- MCF-7 (% inhibition) [2]: 73.52 ± 1.6%

SMILES: C/C(=N\N=C1/NC(=O)C(C)S1)c1ccccn1 (stereo not shown) [7a, (E)-5-Methyl-2-(((E)-1-(pyridin-2-yl)ethylidene)hydrazono)thiazolidin-4-one]
- MCF-7 (% inhibition) [2]: 72.79 ± 1.3%

- IC50 (CDK2/cyclin A): 2440 nM
- Stronger inhibitory activity against CDK2/cyclin A compared with roscovitine (CDK2/cyclin A; from IC50 values of Table 2): 1.3 fold
- IC50 (GSK3β): 485 nM
- IC50 [1]: 5.9 µg/mL (≈ 21.4 µM)
SMILES: CC(=O)C1S/C(=N/N=C(\C)c2ccccn2)NC1=O (stereo not shown) [8a, (E)-5-Acetyl-2-(((E)-1-(pyridin-2-yl)ethylidene)hydrazono)thiazolidin-4-one]
- Increase of NOx level compared to untreated cells (HEp-2 cells [3]): 19%
- Reduction in GSH content compared to untreated cells (HEp-2 cells [4]): 14%
- Vero (% inhibition) [5]: 44.24 ± 2.8%
- HEp-2 (% inhibition) [1]: 78.67 ± 2.5%

SMILES: CCN1C(=O)/C(=C\c2ccc(F)cc2)S/C1=N/N=C(\C)c1ccccn1 [9b, (E)-3-Ethyl-5-((E)-4-fluorobenzylidene)-2-(((E)-1-(pyridin-2-yl)ethylidene)hydrazono)thiazolidin-4-one]
- MCF-7 (% inhibition) [2]: 70.58 ± 1.8%

SMILES: C/C(=N\N=C1/NC(=O)/C(=C\c2ccc(Cl)cc2)S1)c1ccccn1 [10a, (E)-5-((E)-4-Chlorobenzylidene)-2-(((E)-1-(pyridin-2-yl)ethylidene)hydrazono)thiazolidin-4-one]
- MCF-7 (% inhibition) [2]: 71.32 ± 3.4%

- IC50 ([7]; Homo sapiens, HepG2, 48 h, read-out: IC50 against HepG2): 9.5 µg/mL (≈ 27.1 µM)
- IC50 (CDK2/cyclin A): 1130 nM
- Stronger inhibitory activity against CDK2/cyclin A compared with roscovitine (CDK2/cyclin A; from IC50 values of Table 2): 2.2 fold
- IC50 (GSK3β): 337 nM
SMILES: C/C(=N\N=c1/[nH]c(C)c(/N=N/c2ccc(C)cc2)s1)c1ccccn1 [13a, (E)-4-Methyl-2-(((E)-1-(pyridin-2-yl)ethylidene)hydrazono)-5-((E)-p-tolyldiazenyl)-2,3-dihydrothiazole]
- Necrotic cells (HepG2 cells [6]): 3.25%
- HepG2 (% inhibition) ([7]; single concentration 100 μg mL^−1, 48 h, SRB, mean ± SD): 76.56 ± 1.3%
- Vero (% inhibition) [5]: 41.81 ± 2.3%
- Cells in G0–G1 phase (%DIP G1) (HepG2 cells [8]): 59.62%
- Reduction in GSH level compared to untreated cells (HepG2 cells [9]): 33%
- Increase of NOx level compared to untreated cells (HepG2 cells [10]): 25%
